# According to article PMC9728921, “Characterization of a KDM5 small molecule inhibitor with antiviral activity against hepatitis B virus” (PLOS ONE, 2022):
# How the values were obtained:
# [1] = system: HBV; assay: Secreted HBsAg by immunoassay in HBV-infected PHH; assay type: cell-based; conditions: Hepatitis B virus
# Procedure: (§1) Approximately 24 hours after plating, PHH were infected with HepAD38-derived GTD virus at 500 viral genome equivalents per cell in maintenance medium supplemented with 4% PEG 8000 (Promega, Madison, WI; V3011). For patient sera infections, PHH were infected with 6 μl of patient sera in maintenance medium supplemented with 4% PEG 8000. Infections were allowed to proceed for 20–24 hours before removing remaining extracellular virions by washing with maintenance medium three times. […]
# (§2) Hepatitis B e antigen (HBeAg) and Hepatitis B surface antigen (HBsAg) were detected in culture media at the indicated time by ELISA or electrochemiluminescence assay (MSD). The HBeAg and HBsAg ELISAs were performed using the HBeAg ELISA kit (International Immuno-Diagnostics, Foster City, CA) and HBsAg ETI-MAK-2 plus kit (DiaSorin, Stillwater, MN), respectively according to the manufacturer’s instructions. Concentrations were calculated by interpolation from standard curves with purified HBeAg and HBsAg. The MSD assay was performed according to the manufacturer’s instructions (Meso Scale Diagnostics, Rockville, MD). Briefly, cultured supernatants were inactivated with 0.5% Triton X-100 (30 minutes at 37°C) and then transferred into plates pre-spotted with both an anti-HBeAg antibody (Genway Bio, San Diego, CA) and a custom anti-HBsAg antibody. The plates were then incubated for two hours at room temperature with gentle shaking, followed by a wash step in PBS with 0.5% Tween. MSD sulfate tags anti-A and anti-B (1 μg/mL each) were then added to the wells and the plates incubated for a further two hours at room temperature with gentle shaking, followed by another wash step in PBS with 0.5% Tween. A 2X solution of MSD T Buffer Read was then added and the plate was read on a Sector Imager 6000 plate scanner.
# (§3) Antiviral activity of test compounds was determined from vRNA, vDNA, HBeAg, and HBsAg data by comparing compound-treated PHH to DMSO (vehicle)-treated PHH to generate a percent of DMSO control value (% DMSO control). The % DMSO control was calculated by the following equation: %DMSOControl=100xXc/XD where Xc is the signal from the compound-treated PHH and XD is the signal from the DMSO-treated PHH. The % DMSO control for vRNA, vDNA, HBeAg, HBsAg, GAPDH, or RPLP0 was plotted versus the log of each compound concentration in GraphPad Prism (version 6; Graphpad Software, LaJolla, CA) to generate dose-response curves. […] Dose-response curves were fitted using the nonlinear regression equation “log(agonist) versus response–variable slope (four parameters)” in GraphPad Prism to determine EC50 values.
# [2] = system: HBV; assay: Secreted HBeAg by immunoassay in HBV-infected PHH; assay type: cell-based; conditions: Hepatitis B virus
# Procedure: as §1, §2, §3
# [3] = Cytotoxicity in HBV-infected PHH (50% decrease in GAPDH or RPLP0); assay type: cell-based, human; conditions: human, HBV-infected primary human hepatocytes (PHH); for CC50 at 14 days: PHH donor Hu8181, treated every three to four days for 14 days
# [4] = system: PHH; assay: as above; assay type: cell-based, human; conditions: treated every three to four days for 14 days
# [5] = Cytotoxicity CC50, MT-4; assay type: cell-based; conditions: human, MT-4 cells (T-lymphoblastoid cell line)
# Description: (§4) a Values represent the geometric mean and multiplicative standard deviation of 3 – 5 primary human hepatocyte (PHH) donors or 5 – 10 independent experiments.
# (§5) b MT-4: human T-lymphoblastoid cell line; PBMC: peripheral blood mononuclear cell; Gal-HepG2: galactose adapted human hepatoblastoma cell line; Huh-7: human hepatoma cell line; Gal-PC3: galactose adapted human prostate carcinoma cell line; MRC-5: Medical Research Council 5 embryonal lung fibroblast; NRVM: neonatal rat ventricular cardiomyocytes
# [6] = Cytotoxicity CC50, MRC-5; assay type: cell-based; conditions: human, MRC-5 cells (embryonal lung fibroblasts)
# Description: as §4, §5
# [7] = Cytotoxicity CC50, NRVM; assay type: cell-based; conditions: rat, NRVM (neonatal rat ventricular cardiomyocytes)
# Description: as §4, §5
# [8] = system: PHH or a panel of human cells; assay: Cytotoxicity in PHH or in a panel of human cells (summary); assay type: cell-based; conditions: concentrations up to 57 μM
# [9] = system: HBV; assay: HBV antiviral activity in HBV-infected PHH (overall; HBsAg and HBeAg over time); assay type: cell-based, Hepatitis B virus
# Procedure: Approximately 24 hours after plating, PHH were infected with HepAD38-derived GTD virus at 500 viral genome equivalents per cell in maintenance medium supplemented with 4% PEG 8000 (Promega, Madison, WI; V3011). For patient sera infections, PHH were infected with 6 μl of patient sera in maintenance medium supplemented with 4% PEG 8000. Infections were allowed to proceed for 20–24 hours before removing remaining extracellular virions by washing with maintenance medium three times.
# For the pulse dose regimen, medium containing compound was removed after two hours incubation and replaced with fresh maintenance medium every three to four days. Cells in the pulse dose experiment received only one dose of compound (Day = 0).
# as §2
# [10] = read-out: HBsAg EC50, PHH donor BCD, HBV GTD, treated every three to four days for 14 days
# [11] = read-out: HBsAg EC50, PHH donor Hu276, HBV GTD, treated every three to four days for 14 days
# [12] = read-out: HBsAg EC50, PHH donor Hu349, HBV GTD, treated every three to four days for 14 days
# [13] = read-out: HBsAg EC50, PHH donor Hu4167, HBV GTD, treated every three to four days for 14 days
# [14] = read-out: HBsAg EC50, PHH donor Hu7272, HBV GTD, treated every three to four days for 14 days
# [15] = read-out: HBsAg EC50, PHH donor Hu8130, HBV GTD, treated every three to four days for 14 days
# [16] = read-out: HBsAg EC50, PHH donor Hu8181, HBV GTD, treated every three to four days for 14 days
# [17] = read-out: HBeAg EC50, PHH donor BCD, HBV GTD, treated every three to four days for 14 days
# [18] = read-out: HBeAg EC50, PHH donor Hu276, HBV GTD, treated every three to four days for 14 days
# [19] = read-out: HBeAg EC50, PHH donor Hu349, HBV GTD, treated every three to four days for 14 days
# [20] = read-out: HBeAg EC50, PHH donor Hu4167, HBV GTD, treated every three to four days for 14 days
# [21] = read-out: HBeAg EC50, PHH donor Hu7272, HBV GTD, treated every three to four days for 14 days
# [22] = read-out: HBeAg EC50, PHH donor Hu8130, HBV GTD, treated every three to four days for 14 days
# [23] = read-out: HBeAg EC50, PHH donor Hu8181, HBV GTD, treated every three to four days for 14 days
# [24] = 10 μM every three to four days, three PHH donors
smiles,measurement,setting,value
CCOC(=O)c1ccnc(CNCC(=O)N(CC)CCN(C)C)c1 [GS-5801],EC50,"[1]; 336 h, read-out: EC50, secreted HBsAg, across HBV genotypes (summary value), 14 days of dosing",170 nM
same,EC50,"[1]; 336 h, read-out: EC50 range across genotypes, secreted HBsAg, range across genotypes, 14 days of dosing",36 to 3100 nM
same,EC50,"[1]; 336 h, read-out: EC50 range for secreted HBsAg, range over the seven PHH donors tested, HBV GTD, Day 14",15 to 1700 nM
same,EC50,[1]; [10],15 nM
same,EC50,[1]; [11],150 nM
same,EC50,[1]; [12],970 nM
same,EC50,[1]; [13],240 nM
same,EC50,[1]; [14],5100 nM
same,EC50,[1]; [15],1700 nM
same,EC50,[1]; [16],61 nM
same,EC50,"[1]; read-out: HBsAg EC50, PHH infected with HBV GTA, treated every three to four days for 13 days",36 nM
same,EC50,"[1]; read-out: HBsAg EC50, PHH infected with HBV GTC, treated every three to four days for 13 days",120 nM
same,EC50,"[1]; read-out: HBsAg EC50, PHH infected with HBV GTD, treated every three to four days for 13 days (Table 3)",220 nM
same,EC50,"[1]; read-out: HBsAg EC50, PHH infected with HBV GTE, treated every three to four days for 13 days",3100 nM
same,EC50,"[2]; 336 h, read-out: EC50 range across genotypes, secreted HBeAg, range across genotypes, 14 days of dosing",300 to 1400 nM
same,EC50,"[2]; 336 h, read-out: EC50 range for secreted HBeAg, range over the seven PHH donors tested, HBV GTD, Day 14",14 to 1100 nM
same,EC50,[2]; [17],14 nM
same,EC50,[2]; [18],100 nM
same,EC50,[2]; [19],380 nM
same,EC50,[2]; [20],150 nM
same,EC50,[2]; [21],610 nM
same,EC50,[2]; [22],1100 nM
same,EC50,[2]; [23],110 nM
same,EC50,"[2]; read-out: HBeAg EC50, PHH infected with HBV GTA, treated every three to four days for 13 days",1100 nM
same,EC50,"[2]; read-out: HBeAg EC50, PHH infected with HBV GTD, treated every three to four days for 13 days (Table 3)",300 nM
same,EC50,"[2]; read-out: HBeAg EC50, PHH infected with HBV GTE, treated every three to four days for 13 days",1400 nM
same,CC50 at 14 days,[3],> 10000 nM
same,CC50,[3]; the seven PHH donors tested,> 10000 nM
same,CC50,[4]; PHH donor Hu276,> 10000 nM
same,CC50,[4]; PHH donor Hu349,> 10000 nM
same,CC50,[4]; PHH donor Hu4167,> 10000 nM
same,CC50,[4]; PHH donor Hu7272,> 10000 nM
same,CC50,[4]; PHH donor Hu8130,> 10000 nM
same,CC50,[4]; PHH donor,> 10000 nM
same,CC50,[5],51000 ± 1200 nM
same,CC50,[6],> 44000 nM
same,CC50,[7],> 44000 nM
same,measurable cytotoxicity,[8],neither GS-5801 nor GS-080 had measurable cytotoxicity
same,time course throughout which antiviral activity was maintained,[9]; [24],30 to 32 days
same,time to maximal HBsAg and HBeAg inhibition after initiation of treatment,[9]; [24],12 to 17 days
same,time inhibition of HBeAg and HBsAg was sustained following a pulse dose,"[9]; single two-hour pulse dose, 10 μM, donor",up to 20 days
CCN(CCN(C)C)C(=O)CNCc1cc(C(=O)O)ccn1 [GS-080],CC50,[5],> 57000 nM
same,CC50,[6],> 44000 nM
same,CC50,[7],> 44000 nM
same,measurable cytotoxicity,[8],neither GS-5801 nor GS-080 had measurable cytotoxicity
CCOC(=O)c1cc(CNCC(=O)N(CC)CCN(C)C)ncc1Br [GS-420],EC50,[1]; [10],> 10000 nM
same,EC50,[1]; [11],> 10000 nM
same,EC50,[1]; [12],> 10000 nM
same,EC50,[1]; [13],> 10000 nM
same,EC50,[1]; [14],> 10000 nM
same,EC50,[1]; [15],> 10000 nM
same,EC50,[1]; [16],> 10000 nM
same,EC50,[2]; [17],> 10000 nM
same,EC50,[2]; [18],> 10000 nM
same,EC50,[2]; [19],> 10000 nM
same,EC50,[2]; [20],> 10000 nM
same,EC50,[2]; [21],> 10000 nM
same,EC50,[2]; [22],> 10000 nM
same,EC50,[2]; [23],> 10000 nM
same,CC50 at 14 days,[3],> 10000 nM
same,CC50,[4]; PHH donor Hu276,> 10000 nM
same,CC50,[4]; PHH donor Hu349,> 10000 nM
same,CC50,[4]; PHH donor Hu4167,> 10000 nM
same,CC50,[4]; PHH donor Hu7272,> 10000 nM
same,CC50,[4]; PHH donor Hu8130,> 10000 nM
same,CC50,[4]; PHH donor,> 10000 nM
same,HBV antiviral activity in PHH,[9]; concentrations up to 10 μM,did not exhibit HBV antiviral activity
